{"source": "patent US20190091177A1", "about": "“METHOD OF TREATING SELECTED PATIENT POPULATION EXPERIENCING DRAVET SYNDROME” (ZOGENIX INTERNATIONAL LIMITED, priority 2017, published 2019)", "key": {"[1]": {"test_system": "patients with Dravet syndrome", "conditions": "cited from earlier work; for >50% Reduction in Seizures (patients) / Seizure-free Patients: fenfluramine and valproate, average daily dose 0.34 mg/kg/day for 1 to 22 years, 12 patients, 0.34 mg/kg/day"}, "[2]": {"test_system": "patients with Dravet syndrome", "assay": "Study 1: Phase 3 randomized, double blind, placebo controlled study (ZX008-1501/ZX008-1502) of liquid fenfluramine formulation as adjunctive therapy", "assay_type": "in vivo, human", "experimental": "The first 119 subjects to be randomized in both identical studies combined were analyzed and reported as Study 1 (FIG. 1), covered by a Statistical Analysis Plan (SAP).\nPrimary and key secondary endpoints in the Study 1 SAP were pre-determined. All patients were treated twice per day over a period of 14 weeks using an oral syringe to administer the formulation. The treatment period included a two-week titration period and a 12-week maintenance period.\nThe initial results of Study 1 are outlined below. The randomized, double blind, placebo controlled, Phase 3 study enrolled 119 patients across sites in the United States, Canada, Europe and Australia. The median age of patients was 8 years, the mean age of patients was 9 years (range, 2-18 years) (FIG. 2).\nPatients were titrated to their target dose over two weeks, and then remained at that fixed dose for 12 weeks. The mean baseline convulsive seizure frequency across the study groups was approximately 40 seizures per month. 110 (92%) patients completed the study (85% 0.8 mg/kg/day; 100% 0.2 mg/kg/day; 93% placebo).\nThe proportion of patients who achieved ≥75% seizure reductions, a secondary (non-key) efficacy measure, is also presented.\nThe mean number of convulsive seizure free days, defined as a day for which diary data are available and no convulsive seizures have been reported, was determined for each treatment group during the Baseline and T+M Periods. Using a parametric analysis, comparisons for the ZX008 groups to placebo were estimated from an ANCOVA model with treatment group (3 levels) and age group (<6 years, ≥6 years) as factors, log baseline number of convulsive seizure free days as a covariate and log convulsive seizure free days (Titration+Maintenance, or Maintenance Period) as response. The mean (SD) number of convulsive seizure free days per 28 days during the Baseline Period was 12.6 (7.68), 15.7 (6.80), and 14.6 (7.59) for the placebo, 0.2 and 0.8 mg/kg/day groups, respectively. […]"}, "[3]": {"conditions": "long-term fenfluramine treatment"}}, "note": "Read-outs that look alike come from different tables or passages of the source."}
{"smiles": "CCNC(C)Cc1cccc(C(F)(F)F)c1", "note": "(racemic) [Fenfluramine, (RS)-N-ethyl-1-[3-(trifluoromethyl)phenyl]propan-2-amine]", "values": [{"measurement": ">50% Reduction in Seizures (patients)", "setting": "[1]", "value": "9/12 (75%)"}, {"measurement": "Seizure-free Patients", "setting": "[1]", "value": "8/12 (66%)"}, {"measurement": ">50% Reduction in Seizures (patients)", "setting": "[1]; listed as fenfluramine", "value": 75, "unit": "%"}, {"measurement": "Seizure-free Patients", "setting": "[1]; listed as fenfluramine", "value": 66.6, "unit": "%"}, {"measurement": "Echocardiography monitoring for possible heart valve defects", "setting": "[1]; [3]", "value": "No clinically relevant defects were identified"}, {"measurement": "Effect on types of seizures", "setting": "[1]; [3]", "value": "effectively reduced the incidence of all types of seizures"}, {"measurement": "Mean (SD) non-convulsive seizure frequency per 28 days at the end of the T+M Period", "setting": "[2]; 0.2 mg/kg/day, baseline 193.6 (478.45)", "value": "93.7 (219.69) per 28 days"}, {"measurement": "Reduction from Baseline in non-convulsive seizure frequency (%, [SD])", "setting": "[2]; 0.8 mg/kg/day, end of T+M Period", "value": "59.1% (40.14)"}, {"measurement": "Mean (SD) non-convulsive seizure frequency per 28 days at the end of the T+M Period", "setting": "[2]; 0.8 mg/kg/day, baseline 335.2 (758.58)", "value": "127.9 (297.39) per 28 days"}]}
